ChEMBL document CHEMBL1201862, “PubChem BioAssay data set” (2004)
The source made the active and inactive calls.

What was measured:
[1] = target: T1, Sentrin-specific protease 8 (Homo sapiens, UniProt Q96LD8); type: functional;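 also: kinetic enzyme assay of SENP8 cleaving a Nedd8 protein substrate, dose-response confirmation of screening hits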
T1 sequence (Q96LD8 whole entry): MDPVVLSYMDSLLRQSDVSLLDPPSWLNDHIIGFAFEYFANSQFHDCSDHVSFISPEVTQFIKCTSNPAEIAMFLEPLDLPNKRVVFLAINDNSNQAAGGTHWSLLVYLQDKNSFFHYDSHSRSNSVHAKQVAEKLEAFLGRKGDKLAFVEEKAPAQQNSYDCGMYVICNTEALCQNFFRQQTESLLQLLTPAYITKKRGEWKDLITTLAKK

[2] = target: Type-1 angiotensin II receptor (Homo sapiens, UniProt P30556); assay: AT1 receptor antagonists, dose response, selectivity assay for APJ receptor antagonist project, cell-based, uHTS hits (AID 463214); type: functional;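 also: antagonist potency against angiotensin II stimulated AT1 response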
[3] = target: T2, Rac GTPase-activating protein 1 (Homo sapiens, UniProt Q9H0H5); assay: MgcRacGAP GTPase-activating activity inhibitors, confirmation, biochemical, ADP Hunter fluorescence, primary and confirmatory (AID 624330); type: functional
T2 sequence (Q9H0H5 whole entry): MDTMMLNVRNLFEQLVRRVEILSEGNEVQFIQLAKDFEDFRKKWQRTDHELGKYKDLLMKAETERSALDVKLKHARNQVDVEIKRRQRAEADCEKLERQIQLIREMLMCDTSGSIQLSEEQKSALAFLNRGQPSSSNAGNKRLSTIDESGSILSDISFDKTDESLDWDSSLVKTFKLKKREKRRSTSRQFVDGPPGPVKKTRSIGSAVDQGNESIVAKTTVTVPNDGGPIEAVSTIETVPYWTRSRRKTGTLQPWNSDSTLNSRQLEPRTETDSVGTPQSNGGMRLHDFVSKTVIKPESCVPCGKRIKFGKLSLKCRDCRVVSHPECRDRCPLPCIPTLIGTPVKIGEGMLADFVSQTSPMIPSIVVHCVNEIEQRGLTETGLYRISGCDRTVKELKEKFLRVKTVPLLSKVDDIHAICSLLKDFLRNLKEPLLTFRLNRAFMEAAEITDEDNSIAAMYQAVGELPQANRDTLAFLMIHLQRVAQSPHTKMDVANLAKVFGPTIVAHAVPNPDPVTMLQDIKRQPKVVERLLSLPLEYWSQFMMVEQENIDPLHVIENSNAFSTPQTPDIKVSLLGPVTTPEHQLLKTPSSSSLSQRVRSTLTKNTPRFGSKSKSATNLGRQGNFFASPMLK

[4] = target: T3, Beta-galactosidase (Escherichia coli, UniProt Q8VNN2); assay: PubChem AID 485352; type: functional
[5] = inhibitors of firefly luciferase expression or activity, dose response, H4 neuroglioma cells, luminescence (AID 1990); type: functional, cell-based
[6] = Luminescence Cell-Based Dose Response HTS to Identify Inhibitors of 5'UTR Stem-Loop Driven Prion Protein mRNA Translation in H4 Neuroglioblastoma Cells. [Related pubchem assays: 1827 (Project Summary), 1813 (Primary HTS)]; type: functional
[7] = test system: CHO; assay: cytotoxicity in TLR9-MyD88 CHO cells, dose response, cytotoxicity control for TLR9-MyD88 binding inhibitor project, cell-based, luminescence (AID 588339); type: functional, hamster; conditions: Cricetulus griseus;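 also: CHO cells stably coexpressing TLR9 and MyD88 fusions from primary screen; compound exposure lasted 48 hours before viability readout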
[8] = target: Luciferin 4-monooxygenase (Photinus pyralis, UniProt P08659); assay: firefly luciferase enzyme inhibitors, dose response, biochemical, luminescence (AID 1891)
[9] = Luminescence Cell-Based Dose Confirmation HTS to Identify Inhibitors of Platelet Dense Granule Release. [Related pubchem assays: 1663 (Primary HTS), 1678 (Summary of Project)]; type: functional
[10] = target: Heat shock protein HSP 90-alpha (Homo sapiens, UniProt P07900); type: functional, organism-based
[11] = target: Photoreceptor-specific nuclear receptor (Homo sapiens, UniProt Q9Y5X4); type: functional, cell-based;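 also: CHO-S cells with Gal4-NCOR and VP16-NR2E3 two-hybrid luciferase reporter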
[12] = HepG2 cell cytotoxicity, dose response, cytotoxicity control for Shn3 inhibitor project, CellTiter-Glo, cherry-picked (AID 624134); type: functional, cell-based
[13] = inhibitors of PGC1a acetylation in cells, dose response, cell-based, cherry-picked samples (AID 720514); type: functional;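 also: potency may reflect raised or lowered acetylation signal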
[14] = target: Kappa-type opioid receptor (Homo sapiens, UniProt P41145); type: functional
[15] = target: T3, Beta-galactosidase; assay: beta-galactosidase enzyme inhibitors and activators, dose response, artefact control for CCR6 antagonist project, biochemical, E. coli enzyme, set 3 (AID 504712); type: functional
[16] = target: T4, Apoptotic protease-activating factor 1 (Homo sapiens, UniProt O14727); type: functional
T4 sequence (O14727 whole entry): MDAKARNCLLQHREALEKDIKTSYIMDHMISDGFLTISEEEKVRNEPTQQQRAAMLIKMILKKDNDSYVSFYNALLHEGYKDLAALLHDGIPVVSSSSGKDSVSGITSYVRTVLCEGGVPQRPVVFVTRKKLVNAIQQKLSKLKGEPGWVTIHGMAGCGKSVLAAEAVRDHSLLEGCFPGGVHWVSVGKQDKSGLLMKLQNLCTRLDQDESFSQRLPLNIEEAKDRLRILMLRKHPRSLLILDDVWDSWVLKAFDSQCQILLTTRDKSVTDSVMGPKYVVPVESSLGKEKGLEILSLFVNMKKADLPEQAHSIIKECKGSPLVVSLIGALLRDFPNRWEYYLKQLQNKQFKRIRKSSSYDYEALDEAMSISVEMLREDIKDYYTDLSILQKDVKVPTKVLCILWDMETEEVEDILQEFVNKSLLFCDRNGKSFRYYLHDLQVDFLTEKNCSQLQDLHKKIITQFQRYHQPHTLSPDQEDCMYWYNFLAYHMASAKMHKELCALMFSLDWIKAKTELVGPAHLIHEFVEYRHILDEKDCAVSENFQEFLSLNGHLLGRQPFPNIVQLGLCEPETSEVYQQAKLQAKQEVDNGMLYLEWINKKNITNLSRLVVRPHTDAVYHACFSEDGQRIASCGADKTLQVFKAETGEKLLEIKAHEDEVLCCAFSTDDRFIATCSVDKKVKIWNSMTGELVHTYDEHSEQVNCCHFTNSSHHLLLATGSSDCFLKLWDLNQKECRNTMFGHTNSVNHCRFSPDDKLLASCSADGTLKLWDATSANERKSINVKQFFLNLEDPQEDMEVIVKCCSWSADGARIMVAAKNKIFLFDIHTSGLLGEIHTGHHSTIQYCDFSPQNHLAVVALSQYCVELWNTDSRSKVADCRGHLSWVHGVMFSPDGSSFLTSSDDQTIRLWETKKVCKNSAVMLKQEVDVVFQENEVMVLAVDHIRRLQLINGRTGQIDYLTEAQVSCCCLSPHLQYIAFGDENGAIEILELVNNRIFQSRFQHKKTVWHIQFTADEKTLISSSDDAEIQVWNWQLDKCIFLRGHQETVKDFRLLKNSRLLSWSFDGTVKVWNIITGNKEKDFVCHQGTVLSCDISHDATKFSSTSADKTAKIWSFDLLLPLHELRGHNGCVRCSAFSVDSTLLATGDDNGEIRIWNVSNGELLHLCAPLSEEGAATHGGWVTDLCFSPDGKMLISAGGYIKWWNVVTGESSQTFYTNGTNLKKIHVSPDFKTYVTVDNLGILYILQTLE

[17] = test system: Vero; assay: cells; type: functional; conditions: Chlorocebus sabaeus

T3 sequence (Q8VNN2 whole entry): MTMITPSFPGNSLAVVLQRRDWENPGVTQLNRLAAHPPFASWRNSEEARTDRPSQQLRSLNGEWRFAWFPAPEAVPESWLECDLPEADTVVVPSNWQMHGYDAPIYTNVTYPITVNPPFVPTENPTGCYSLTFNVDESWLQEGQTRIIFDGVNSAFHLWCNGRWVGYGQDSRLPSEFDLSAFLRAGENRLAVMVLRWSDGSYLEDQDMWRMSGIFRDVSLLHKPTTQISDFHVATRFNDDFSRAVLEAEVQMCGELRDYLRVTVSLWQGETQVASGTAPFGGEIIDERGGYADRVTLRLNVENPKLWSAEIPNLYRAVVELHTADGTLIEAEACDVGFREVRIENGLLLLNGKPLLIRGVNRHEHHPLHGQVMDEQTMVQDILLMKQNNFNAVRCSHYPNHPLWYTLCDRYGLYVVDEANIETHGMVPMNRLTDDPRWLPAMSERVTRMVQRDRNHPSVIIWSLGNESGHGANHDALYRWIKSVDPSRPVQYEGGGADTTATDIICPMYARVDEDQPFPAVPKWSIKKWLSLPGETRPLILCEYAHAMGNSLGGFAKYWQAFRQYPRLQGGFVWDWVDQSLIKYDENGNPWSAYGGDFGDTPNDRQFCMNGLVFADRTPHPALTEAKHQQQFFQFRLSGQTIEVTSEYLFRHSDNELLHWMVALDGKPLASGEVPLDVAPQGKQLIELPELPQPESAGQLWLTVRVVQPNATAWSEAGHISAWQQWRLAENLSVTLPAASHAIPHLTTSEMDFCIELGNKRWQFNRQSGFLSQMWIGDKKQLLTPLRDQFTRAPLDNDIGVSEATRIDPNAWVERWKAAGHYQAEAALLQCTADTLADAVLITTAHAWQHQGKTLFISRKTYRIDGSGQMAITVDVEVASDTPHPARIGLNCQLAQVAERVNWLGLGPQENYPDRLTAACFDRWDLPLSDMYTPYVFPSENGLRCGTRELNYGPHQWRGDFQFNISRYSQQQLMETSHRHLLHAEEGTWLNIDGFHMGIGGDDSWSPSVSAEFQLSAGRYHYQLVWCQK
Kappa-type opioid receptor, sequence (P41145 whole entry): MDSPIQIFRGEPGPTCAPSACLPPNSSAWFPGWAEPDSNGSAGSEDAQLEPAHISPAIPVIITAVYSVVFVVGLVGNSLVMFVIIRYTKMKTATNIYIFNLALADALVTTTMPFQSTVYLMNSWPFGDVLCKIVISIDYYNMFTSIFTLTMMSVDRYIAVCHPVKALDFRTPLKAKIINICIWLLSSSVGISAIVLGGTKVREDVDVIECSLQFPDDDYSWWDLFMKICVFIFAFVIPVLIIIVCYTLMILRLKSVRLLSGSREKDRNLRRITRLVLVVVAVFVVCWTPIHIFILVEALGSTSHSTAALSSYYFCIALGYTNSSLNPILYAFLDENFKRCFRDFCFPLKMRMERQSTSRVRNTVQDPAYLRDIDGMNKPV
Photoreceptor-specific nuclear receptor, sequence (Q9Y5X4 whole entry, the tested form may be a part): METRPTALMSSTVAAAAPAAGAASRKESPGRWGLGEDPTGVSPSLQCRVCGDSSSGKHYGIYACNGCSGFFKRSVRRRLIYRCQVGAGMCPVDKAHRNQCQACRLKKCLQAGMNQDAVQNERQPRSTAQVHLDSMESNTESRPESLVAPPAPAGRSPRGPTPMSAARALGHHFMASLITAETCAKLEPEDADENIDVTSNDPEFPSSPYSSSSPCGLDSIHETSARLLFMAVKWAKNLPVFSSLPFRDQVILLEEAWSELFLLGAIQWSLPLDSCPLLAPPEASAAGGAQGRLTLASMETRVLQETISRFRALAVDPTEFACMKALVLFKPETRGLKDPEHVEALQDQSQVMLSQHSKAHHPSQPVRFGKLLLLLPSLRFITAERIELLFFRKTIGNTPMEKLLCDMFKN
Luciferin 4-monooxygenase, sequence (P08659 whole entry): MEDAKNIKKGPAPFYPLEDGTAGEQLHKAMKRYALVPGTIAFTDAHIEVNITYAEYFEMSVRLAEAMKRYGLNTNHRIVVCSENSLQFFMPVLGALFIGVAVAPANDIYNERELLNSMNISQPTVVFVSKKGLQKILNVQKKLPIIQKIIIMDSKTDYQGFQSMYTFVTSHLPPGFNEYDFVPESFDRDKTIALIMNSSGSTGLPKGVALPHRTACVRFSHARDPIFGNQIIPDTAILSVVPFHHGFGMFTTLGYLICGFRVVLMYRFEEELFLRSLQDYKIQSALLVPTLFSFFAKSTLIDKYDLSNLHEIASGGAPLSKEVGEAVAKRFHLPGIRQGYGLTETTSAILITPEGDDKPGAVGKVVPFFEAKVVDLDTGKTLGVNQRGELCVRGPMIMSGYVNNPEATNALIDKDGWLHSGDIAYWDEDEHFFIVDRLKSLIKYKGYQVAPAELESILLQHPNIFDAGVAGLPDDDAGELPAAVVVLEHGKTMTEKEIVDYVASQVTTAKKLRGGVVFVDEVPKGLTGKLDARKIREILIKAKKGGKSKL
Type-1 angiotensin II receptor, sequence (P30556 whole entry): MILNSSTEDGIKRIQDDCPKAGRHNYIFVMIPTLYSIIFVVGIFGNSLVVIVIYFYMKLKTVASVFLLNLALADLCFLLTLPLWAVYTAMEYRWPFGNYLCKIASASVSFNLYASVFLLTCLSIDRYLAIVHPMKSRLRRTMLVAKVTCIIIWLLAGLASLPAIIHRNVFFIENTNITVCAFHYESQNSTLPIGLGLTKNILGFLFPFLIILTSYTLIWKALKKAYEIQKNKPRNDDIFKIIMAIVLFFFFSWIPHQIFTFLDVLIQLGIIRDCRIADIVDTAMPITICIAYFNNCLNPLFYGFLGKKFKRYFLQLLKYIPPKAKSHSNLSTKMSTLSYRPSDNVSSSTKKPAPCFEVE

**Q.** Which IC50 [1] does the source give for `Nc1ccc(N2CCCCC2)c2nonc12` here?
**A.** The IC50 was 3.28 µM (active).

**Q.** Which results are given for `COc1ccc(NC(=O)/C(Cl)=C(/Cl)[S+]([O-])Cc2ccccc2)cn1` (configuration not stated)?
**A.** IC50 [2]: 3.93 µM (active); IC50 [3]: 36.5 µM (active); EC50 [4]: > 40 µM (inactive); EC50 [5]: 5.93 µM (active); EC50 [6]: 0.998 µM (active); IC50 [7]: 0.453 µM (active); EC50 [8]: > 112 µM (not active); EC50 [9]: 6.34 µM (active); AC50 [10]: 2 µM (active); IC50 [11]: 0.92 µM (active); AC50 [12]: 5.52 µM (active); AC50 [13]: 1.65 µM (active); IC50 [14]: 7.1 µM (active)

**Q.** Which IC50 [15] does the source give for `Cc1ccc(S(=O)(=O)/N=C2\C=C(Nc3cccc(C(=O)O)c3)C(=O)c3ccccc32)c(C)c1` here?
**A.** Its IC50 is 43.5 µM (inactive).

**Q.** And the IC50 [16]?
**A.** The IC50 was 4.11 µM (active).

**Q.** And the CC50 [17]?
**A.** The CC50 was > 25 µM (active).
